# Measured values published in PubChem BioAssay (NCI).
# “And” between values parts separate entries of the source, which are not always exact repeats. Equal entries are not always repeated.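 Interpolation was linear, between the two tested concentrations surrounding the appropriate level; five concentrations were tested over 48 hours in 96-well plates. The concentration for 50% growth inhibition is given as GI50. TGI: concentration producing complete growth inhibition.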
# Tested on: MOLT-4 leukemia
# Test: growth of human tumour cells (NCI), 48 h
Compound,GI50 [µM],TGI [µM]
Fc1[nH]nc2ccc([C@@H]3Nc4ccc5[nH]ncc5c4[C@H]4C5CCC(C5)[C@@H]34)cc12 (stereo partly drawn),0.651,12.7

# Tested on: CCRF-CEM leukemia
# Test: growth of human tumour cells (NCI), 48 h
Compound,GI50,TGI
CN(C)c1ccc(/C=C\C2=[N+](C)c3ccccc3C2(C)C)cc1,0.453 µM,> 100 µM
COc1cc2c(c3oc4c(O)cccc4c(=O)c13)CC(C(C)(O)CO)O2 (stereo not drawn),–,> 100 µM
CC(=O)OC1OC([C@@H]2c3cccc(O)c3C(=O)c3c(O)cc(C)cc32)C(O)C(O)C1O (stereo partly drawn),0.0494 µM,1.63 µM
Nc1nc(-n2c(-c3ccccc3)nc3c(Br)cc(Br)cc3c2=O)nnc1-c1cccc(Cl)c1Cl,5.33 µM,> 100 µM
C[N+](C)(C)CC(=O)N/N=C(/CC(=O)CC(C1=C(O)c2ccccc2OC1)c1ccccc1)C(=O)Nc1cccc(Cl)c1 (stereo not drawn),–,> 100 µM
COc1ccc(CC2c3cc4c(cc3CCN2C)OCO4)c(C=O)c1OC (stereo not drawn),–,> 100 µM
CN1CCCCC1CCN1c2ccccc2Sc2ccc(Cl)cc21 (stereo not drawn),3.81 µM,13.5 µM
C=C(C)C(OC)C(O)CC1(C)CC(O)CC(C)(C2CCC3OC(C4(C)CCC(Br)C(C)(C)O4)CCC3(C)O2)O1 (stereo not drawn),21.3 µM,55.8 µM
Cc1cc(-c2nc(C(=O)Nc3cc4oc(N5CCOCC5)nc4nc3N3CC[C@@H](O)C3)co2)ccn1,29.4 µM,> 100 µM
COc1cc2c(cc1OCCCCN1CCN(CC(=O)Nc3ccc(Cl)cc3C(=O)c3ccccc3Cl)CC1)N=CC1CCCN1C2=O (stereo not drawn),0.159 µM,0.434 µM
Cc1ccc(Cl)c2c(N=Nc3ccccc3[N+](=O)[O-])c(O)[nH]c12,–,> 100 µM
OC1CSSC1Cn1cnc2c(Nc3ccc(OCc4cccc(F)c4)c(Cl)c3)ncnc21 (stereo not drawn),0.656 µM,13.9 µM
C=CCOc1ccc2c(C)cc(=O)oc2c1C,–,> 100 µM
Nc1c(C(=O)c2cccc(CCS(N)(=O)=O)c2)cnn1-c1ccc(F)cc1,> 25 µM,> 25 µM
C=CCO[C@H]1CO[C@H]2[C@@H]1OC[C@@H]2Oc1ccc(Nc2ccnc(Nc3ccc(O[C@H]4CO[C@H]5[C@@H]4OC[C@@H]5OCC=C)c(Cl)c3)n2)cc1Cl,0.652 µM,3.43 µM
COc1cnc2c(c1)C(=O)c1c-2n(CCCN2CCOCC2)c(=O)c2cc(F)ccc12,0.0853 µM,> 100 µM
C[C@@H](Oc1cc(-n2cnc3ccc(CN4CCN(C)CC4)cc32)sc1C(N)=O)c1ccccc1C(F)(F)F,< 0.01 µM and 0.0149 µM,4.24 µM and > 2.07 µM
CCOC1Oc2ccccc2C(=O)/C1=C/Nc1ccc(C(C)=O)cc1 (stereo not drawn),19.2 µM,62.2 µM
O=C(CCNC12CC3CC(CC(C3)C1)C2)c1ccccc1,–,39.2 µM

Compound,GI50,TGI
COc1cccc(-c2cc(-c3cccc(NS(C)(=O)=O)c3)nc(N)c2C#N)c1O,0.153 µM,> 100 µM
CCN1CCN(Cc2ccc(NC(=O)c3cccc(C#Cc4cccc5[nH]nc(N)c45)c3)cc2C(F)(F)F)CC1,0.778 µM,3.96 µM
Cc1ccsc1C(=S)Nc1ccc(Cl)c(/C=N/OC(C)(C)C)c1,–,> 100 µM
CC(C)=CCC\C(C)=C/C=C/C(C)=C\C=C\C(C)=C/C=C/C=C(C)\C=C\C=C(C)/C=C/C=C(/C)CCC=C(C)C,–,> 100 µM
NC(N)=NS(=O)(=O)c1ccc(Nc2c3ccccc3nc3c(C(=O)NCCO)cccc23)cc1,19.9 µM,> 100 µM
COc1cccc(C2c3cc4c(cc3OC(C)(N3CCCC3)C2C)OCO4)c1O (stereo not drawn),–,21.2 µM
CCN(CC)N=Nc1c(C(N)=O)n[nH]c1C,–,54.5 µM
O=C1NC(=NCCc2cccc(F)c2)S/C1=C\c1ccc2ncccc2c1,1.15 µM,> 25 µM
COc1cc(/C=N\NC(=O)CN2CCN(c3cc4c(cc3F)c(=O)c(C(=O)N/N=C/c3cc(OC)c(OC)c(OC)c3)cn4C3CC3)CC2)cc(OC)c1OC,0.316 µM,> 100 µM
OCCN(CCO)c1ncnc2c1ncn2Cc1ccc(CCl)cc1,11 µM,47.1 µM
Cc1ccc2c(C)c3c(ccc4ccccc43)c[n+]2c1,8.89 µM,38.9 µM
Cc1ccc(CN2CCC(C(=O)Nc3ccc(-c4cc5ccccc5[nH]4)cc3)CC2)o1,> 100 µM,> 100 µM
C=CC(=O)Nc1cc(Nc2ncc(C(=O)OC(C)C)c(-c3cn(C)c4ccccc34)n2)c(OC)cc1N(C)CCN(C)C,3.18 µM,17.8 µM
O=C(Nc1ccc(F)cc1)Nc1ccc(Cl)c([N+](=O)[O-])c1,3.3 µM,> 100 µM
CCOC(=O)Cn1c(C(F)(F)F)nc2nc(Cl)c(Cl)nc21,–,> 69.5 µM
CC1CCc2nc[nH]c(=O)c21 (stereo not drawn),> 100 µM,> 100 µM
Fc1[nH]nc2ccc([C@@H]3Nc4ccc5[nH]ncc5c4[C@H]4C5CCC(C5)[C@@H]34)cc12 (stereo partly drawn),0.514 µM,16.5 µM
COC1/C=C/OC2(C)Oc3c(C)c(O)c4c(O)c(c(/C=N/Nc5ccc([N+](=O)[O-])cc5[N+](=O)[O-])c(O)c4c3C2=O)NC(=O)C(C)=C/C=C/C(C)C(O)C(C)C(O)C(C)C(OC(C)=O)C1C (stereo not drawn),1.55 µM,> 50 µM

# Tested on: HS 578T breast
# Test: growth of human tumour cells (NCI), 48 h
Compound,GI50,TGI [µM]
CN(C)c1ccc(/C=C\C2=[N+](C)c3ccccc3C2(C)C)cc1,0.305 µM,8.68
COc1cc2c(c3oc4c(O)cccc4c(=O)c13)CC(C(C)(O)CO)O2 (stereo not drawn),–,> 100
CC(=O)OC1OC([C@@H]2c3cccc(O)c3C(=O)c3c(O)cc(C)cc32)C(O)C(O)C1O (stereo partly drawn),< 0.0103 µM,–
Nc1nc(-n2c(-c3ccccc3)nc3c(Br)cc(Br)cc3c2=O)nnc1-c1cccc(Cl)c1Cl,5.02 µM,41
COC(=O)/C=C1\S/C(=N\NC(=O)c2cc3ccc2/C=C\c2ccc(cc2)/C=C\3)N(c2ccccc2)C1=O,3.49 µM,> 100
COC([CH2][Hg][n]1cnc2c1c(=O)n(C)c(=O)n2C)CN1C(=O)c2ccccc2S1(=O)=O (stereo not drawn),> 100 µM,> 100
COc1ccc(CC2c3cc4c(cc3CCN2C)OCO4)c(C=O)c1OC (stereo not drawn),–,> 100
CN1CCCCC1CCN1c2ccccc2Sc2ccc(Cl)cc21 (stereo not drawn),2.25 µM,8.79
C=C(C)C(OC)C(O)CC1(C)CC(O)CC(C)(C2CCC3OC(C4(C)CCC(Br)C(C)(C)O4)CCC3(C)O2)O1 (stereo not drawn),23.9 µM,52.9
Cc1cc(-c2nc(C(=O)Nc3cc4oc(N5CCOCC5)nc4nc3N3CC[C@@H](O)C3)co2)ccn1,22.2 µM,> 100
Cc1ccc(Cl)c2c(N=Nc3ccccc3[N+](=O)[O-])c(O)[nH]c12,–,70.2
FC(F)(F)c1cccc(Nc2nc(-c3ccccc3)nc3ncccc23)c1,3.49 µM,18.1
OC1CSSC1Cn1cnc2c(Nc3ccc(OCc4cccc(F)c4)c(Cl)c3)ncnc21 (stereo not drawn),5.28 µM,15
C=CCOc1ccc2c(C)cc(=O)oc2c1C,–,77.1
Nc1c(C(=O)c2cccc(CCS(N)(=O)=O)c2)cnn1-c1ccc(F)cc1,> 25 µM,> 25
OCc1cc2ccccc2c2c3c(ccc12)OCO3,29.8 µM,144
COc1cnc2c(c1)C(=O)c1c-2n(CCCN2CCOCC2)c(=O)c2cc(F)ccc12,1.5 µM,23.3
C[C@@H](Oc1cc(-n2cnc3ccc(CN4CCN(C)CC4)cc32)sc1C(N)=O)c1ccccc1C(F)(F)F,0.0853 µM and 0.035 µM,2.53
CCOC1Oc2ccccc2C(=O)/C1=C/Nc1ccc(C(C)=O)cc1 (stereo not drawn),17.9 µM,52
